Experiments:
Test in all cases: relative viability (nuclei count vs DMSO), 5 days (fraction); higher = more cells survive
IA-LM = tested on: IA-LM
How it was run: (§1)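 Five library-drug doses in √10 steps were combined with a fixed anchor-drug dose, or a single drug was given alone, by pin tool to lung cancer cell lines in 1536-well plates the day after seeding. Nuclei were stained and counted after 5 days. Relative viability is the nuclei count in treated wells over that in vehicle wells, taken as the median of duplicate plates.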

NCI-H1651 = tested on: NCI-H1651
How it was run: as §1

RERF-LC-KJ = tested on: RERF-LC-KJ
How it was run: as §1

PC-3 [JPC-3] = tested on: PC-3 [JPC-3]
How it was run: as §1

NCI-H838 = tested on: NCI-H838
How it was run: as §1

NCI-H650 = tested on: NCI-H650
How it was run: as §1

NCI-H1944 = tested on: NCI-H1944
How it was run: as §1

NCI-H520 = tested on: NCI-H520
How it was run: as §1

NCI-H1648 = tested on: NCI-H1648
How it was run: as §1

Work on `Cc1sc2c(c1C)C(c1ccc(Cl)cc1)=N[C@@H](CC(=O)OC(C)(C)C)c1nnc(C)n1-2` [JQ1] + O=C(CCCCCCC(=O)Nc1ccccc1)NO [Vorinostat] (partner 1 µM) yielded a relative viability (IA-LM; first compound 0.04 µM) of 0.925, a relative viability (IA-LM; first compound 0.1265 µM) of 0.888 and a relative viability (IA-LM; first compound 0.4 µM) of 0.197. It also gave a relative viability (IA-LM; first compound 1.265 µM) of 0.0917, a relative viability (IA-LM; first compound 4 µM) of 0.0701 and a relative viability (NCI-H1651; first compound 0.04 µM) of 0.615. The relative viability (NCI-H1651; first compound 0.1265 µM) was 0.472, the relative viability (NCI-H1651; first compound 0.4 µM) was 0.445 and the relative viability (NCI-H1651; first compound 1.265 µM) was 0.416. It also gave a relative viability (NCI-H1651; first compound 4 µM) of 0.307, a relative viability (RERF-LC-KJ; first compound 0.04 µM) of 0.68 and a relative viability (RERF-LC-KJ; first compound 0.1265 µM) of 0.517. It also gave a relative viability (RERF-LC-KJ; first compound 0.4 µM) of 0.44, a relative viability (RERF-LC-KJ; first compound 1.265 µM) of 0.407 and a relative viability (RERF-LC-KJ; first compound 4 µM) of 0.223. It also gave a relative viability (PC-3 [JPC-3]; first compound 0.04 µM) of 0.816, a relative viability (PC-3 [JPC-3]; first compound 0.1265 µM) of 0.716 and a relative viability (PC-3 [JPC-3]; first compound 0.4 µM) of 0.67. It also gave a relative viability (PC-3 [JPC-3]; first compound 1.265 µM) of 0.537, a relative viability (PC-3 [JPC-3]; first compound 4 µM) of 0.377 and a relative viability (NCI-H838; first compound 0.04 µM) of 0.703. It also gave a relative viability (NCI-H838; first compound 0.1265 µM) of 0.322, a relative viability (NCI-H838; first compound 0.4 µM) of 0.488 and a relative viability (NCI-H838; first compound 1.265 µM) of 0.277. The relative viability (NCI-H838; first compound 4 µM) was 0.319, the relative viability (NCI-H650; first compound 0.04 µM) was 0.43 and the relative viability (NCI-H650; first compound 0.1265 µM) was 0.295. The relative viability (NCI-H650; first compound 0.4 µM) was 0.425, the relative viability (NCI-H650; first compound 1.265 µM) was 0.242 and the relative viability (NCI-H650; first compound 4 µM) was 0.192. It also gave a relative viability (NCI-H1944; first compound 0.04 µM) of 0.524, a relative viability (NCI-H1944; first compound 0.1265 µM) of 0.405 and a relative viability (NCI-H1944; first compound 0.4 µM) of 0.325. For the same molecule, the relative viability (NCI-H1944; first compound 1.265 µM) was 0.323, the relative viability (NCI-H1944; first compound 4 µM) was 0.29 and the relative viability (NCI-H520; first compound 0.04 µM) was 0.658. For the same molecule, the relative viability (NCI-H520; first compound 0.1265 µM) was 0.577, the relative viability (NCI-H520; first compound 0.4 µM) was 0.423 and the relative viability (NCI-H520; first compound 1.265 µM) was 0.234. The relative viability (NCI-H520; first compound 4 µM) was 0.225, the relative viability (NCI-H1648; first compound 0.04 µM) was 0.392 and the relative viability (NCI-H1648; first compound 0.1265 µM) was 0.41. It also gave a relative viability (NCI-H1648; first compound 0.4 µM) of 0.264, a relative viability (NCI-H1648; first compound 1.265 µM) of 0.234 and a relative viability (NCI-H1648; first compound 4 µM) of 0.198.

— the supplement of paper PMC10307832
